Literature values in patent US20220362254A1, “METHODS FOR REPROGRAMMING CANCER CELLS” (Thomas Jefferson University, priority 2019, published 2022).

Tested on: Y641 and A677 mutants of EZH2
Settings: cited from earlier work

Cc1cc(C)c(CNC(=O)c2cc(-c3ccc(CN4CCOCC4)cc3)cc3c2cnn3C2CCCC2)c(=O)[nH]1 [EPZ005687]
inhibition of the Y641 and A677 mutants of EZH2: can also inhibit
